These results are taken from ChEMBL document CHEMBL5046238, “Synthesis, biological evaluation, and in silico studies of potential activators of apoptosis and carbonic anhydrase inhibitors on isatin-5-sulfonamide scaffold” (Eur J Med Chem, 2022).

The subject of series [1] is MCF7. The experiment in a line: Induction of apoptosis in human MCF7 cells assessed as NFkappaB activity upto 5 uM measured after 48 hrs by immunoblotting analysis. It counts as functional, cell-based. Particulars: dose microM <=5, time 48.0 hrs. Background: In western blotting, separated proteins are transferred to a membrane and probed.
Series [2] deals with T47D. The experiment in a line: Antiproliferative activity against human T47D cells assessed as growth inhibition under hypoxia conditions measured after 72 hrs by MTT assay.
The test system of series [3] is MCF7. The experiment in a line: Antiproliferative activity against human MCF7 cells assessed as growth inhibition under hypoxia conditions measured after 72 hrs by MTT assay. Particulars: MCF7, 72 h.
The test system of series [4] is MDA-MB-231. Kind of series: Antiproliferative activity against human MDA-MB-231 cells assessed as growth inhibition under normoxia conditions measured after 72 hrs by MTT assay. The note with it: MDA-MB-231, 72 h. In general terms: Formazan colour is commonly taken as a measure of viable cells.
Series [5] has as its system MCF7. The experiment in a line: Induction of apoptosis in human MCF7 cells assessed as […] in BAD protein expression upto 5 uM measured after 48 hrs by immunoblotting analysis. It counts as functional, cell-based. The note with it: dose microM <=5, time 48.0 hrs.
Series [6] in a line: Antiproliferative activity against human K562/4 cells assessed as growth inhibition measured after 72 hrs by MTT assay. Particulars: K562/4, 72 h.
The test system of series [7] is HCT-116. Kind of series: Antiproliferative activity against human HCT-116p53KO subline assessed as growth inhibition measured after 72 hrs by MTT assay. Particulars: HCT-116, 72 h.
The subject of series [8] is MCF7. The experiment in a line: Induction of apoptosis in human MCF7 cells assessed as decrease in ERalpha protein expression upto 5 uM measured after 48 hrs by immunoblotting analysis. It counts as functional, cell-based. Particulars: dose microM <=5, time 48.0 hrs.
For series [9], the system named is MCF7. The experiment in a line: Induction of apoptosis in human MCF7 cells assessed as decrease in Bcl2 expression upto 5 uM measured after 48 hrs by immunoblotting analysis. It counts as functional, cell-based. Particulars: dose microM <=5, time 48.0 hrs.
In the next series the target is Carbonic anhydrase 12 (Homo sapiens, UniProt O43570). Kind of series: Inhibition of human CA12 preincubated for 15 mins by phenol red based stopped flow CO2 hydration assay.
Series [10] deals with T47D. The experiment in a line: Antiproliferative activity against human T47D cells assessed as growth inhibition under normoxia conditions measured after 72 hrs by MTT assay.
In the next series the target is Carbonic anhydrase 9 (Homo sapiens, UniProt Q16790). The experiment in a line: Inhibition of human CA9 preincubated for 15 mins by phenol red dye based stopped flow CO2 hydration assay.
The subject of a further series is K562. The experiment in a line: Antiproliferative activity against human K562 cells assessed as growth inhibition measured after 72 hrs by MTT assay. The note with it: K562, 72 h.
Series [11] in a line: Cytotoxicity against human MCF-10A assessed as cell viability under normoxia conditions measured after 72 hrs by MTT assay. It counts as toxicity, cell-based. The note with it: MCF-10A cells.
Series [12] relates to HCT-116. Kind of series: cells. Particulars: Homo sapiens, HCT-116, 72 h.
Description: Antiproliferative activity against human HCT-116 assessed as growth inhibition measured after 72 hrs by MTT assay
The nature of series [13]: Cytotoxicity against human MCF-10A assessed as cell viability under hypoxia conditions measured after 72 hrs by MTT assay. It counts as toxicity, cell-based. The note with it: MCF-10A cells.
For series [14], the system named is MCF7. The experiment in a line: Induction of apoptosis in human MCF7 cells assessed as PARP cleavage upto 5 uM measured after 48 hrs by immunoblotting analysis. In kind it is functional, cell-based. Particulars: dose microM <=5, time 48.0 hrs.
For series [15], the system named is MCF7. The experiment in a line: Antiproliferative activity against human MCF7 cells assessed as growth inhibition measured after 72 hrs by MTT assay. The note with it: MCF7, 72 h.
Series [16] deals with MDA-MB-231. The experiment in a line: Antiproliferative activity against human MDA-MB-231 cells assessed as growth inhibition under hypoxia conditions measured after 72 hrs by MTT assay. The note with it: MDA-MB-231, 72 h.

Calls of active or inactive are those of the source. The rule behind the calls is not given here.

Chain of Carbonic anhydrase 12 (O43570 whole entry): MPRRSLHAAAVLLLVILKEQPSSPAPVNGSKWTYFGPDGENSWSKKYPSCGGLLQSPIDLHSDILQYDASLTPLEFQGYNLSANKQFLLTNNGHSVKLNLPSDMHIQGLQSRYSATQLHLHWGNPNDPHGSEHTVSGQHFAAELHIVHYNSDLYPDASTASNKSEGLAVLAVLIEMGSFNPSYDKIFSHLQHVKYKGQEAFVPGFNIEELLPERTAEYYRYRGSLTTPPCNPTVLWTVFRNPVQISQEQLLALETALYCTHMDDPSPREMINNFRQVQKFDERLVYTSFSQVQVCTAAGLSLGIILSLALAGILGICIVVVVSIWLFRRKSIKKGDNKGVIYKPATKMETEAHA

Regarding `NS(=O)(=O)c1ccc2c(c1)C(=O)C(=O)N2Cc1ccc(SC(F)(F)F)cc1`, the outcome in the series with MCF7 [1], with MCF7 [9] and with MCF7 [14] was Active. Also, the IC50 – broadly, the concentration that gives 50% inhibition – in the series with T47D [2] was determined as 20.3 µM; in the series with MCF7 [3] it was 3.2 µM; with MDA-MB-231 [4] it was 6.9 µM; in series [6], 6.5 µM; in the series on HCT-116 [7], 15 µM; in the series on T47D [10], 6.3 µM. For the same compound, the IC50 in the series with K562 was 4.5 µM; in the series with HCT-116 [12], 14.5 µM; in the series on MCF7 [15], 2.6 µM; in the series with MDA-MB-231 [16], 10.8 µM. Further, the result with MCF7 [5] was inactive. Moreover, the Activity entry in the series on MCF7 [8] is “Dose-Dependent Effect”. Moreover, the Ki (commonly a dissociation constant, usually derived from enzyme kinetics or from competition with a known ligand) was over 10 µM on Carbonic anhydrase 12 and 1770 nM at Carbonic anhydrase 9. Also, the IC50 at 72 h turned out to be 6.4 µM in series [11] and 8.6 µM in series [13].
For `O=C1C(=O)N(Cc2ccc(Cl)c(Cl)c2)c2ccccc21`, the outcome with MCF7 [1] and in the series with MCF7 [8] was inactive. Moreover, the concentration for half-maximal inhibition (IC50) with MCF7 [3] was over 50 µM; in the series with MDA-MB-231 [4] it was over 50 µM; in series [6], 48 µM; in the series on HCT-116 [7] it was over 50 µM; in the series on K562, 20 µM; in the series on HCT-116 [12], 38 µM. The half-maximal inhibitory concentration (IC50) in the series with MCF7 [15] and in the series on MDA-MB-231 [16] was over 50 µM in each case. Also, the outcome in the series on MCF7 [5], in the series on MCF7 [9] and in the series with MCF7 [14] was Active.
On to `NS(=O)(=O)c1ccc2c(c1)C(=O)C(=O)N2Cc1cccc(F)c1`, for which the figures for the IC50 (in series [6]; with K562; in the series on MCF7 [15]) were 50 µM, 15.5 µM and 26.8 µM, respectively. Further, the figures for the Ki at Carbonic anhydrase 12 and on Carbonic anhydrase 9 were over 10 µM and 2530 nM, respectively.
Turning to `NS(=O)(=O)c1ccc2c(c1)C(=O)C(=O)N2Cc1cccc(C(F)(F)F)c1`, the IC50 is over 50 µM in the series with T47D [2]; 5.9 µM in the series on MCF7 [3]; 14.2 µM in the series on MDA-MB-231 [4]; 19.8 µM in series [6]; 30 µM in the series on HCT-116 [7]; 6.3 µM in the series on T47D [10]. Further, the IC50 in the series with K562 was found to be 9.8 µM; with HCT-116 [12], 17.7 µM; with MCF7 [15], 8.4 µM; in the series on MDA-MB-231 [16], 17.6 µM. Further, the results for the Ki on Carbonic anhydrase 12 and on Carbonic anhydrase 9 were over 10 µM and 244 nM, respectively.
